{
  "source": "patent US20230233617A1",
  "about": "“METHODS FOR DIFFERENTIATING STEM CELLS INTO DOPAMINERGIC PROGENITOR CELLS” (JZ CELL TECHNOLOGIES AB, priority 2020, published 2023)",
  "key": {"hPSC-derived NSCs": {"system": "hPSC-derived NSCs", "test": "Ventral regional identity of hPSC-derived NSCs at 9 DDC in dSMADi+SAG conditions (NKX2.1, LMX1A, PHOX2B, NKX2.2)", "assay_type": "cell-based, human", "conditions": "for identity imposed by RA analogue with inhibition of CYP26 activity: 500 nM analogue for 48-hours plus 500 nM R115866, 9 DDC; for identity imposed by RA analogue: 500 nM for 48-hours; for identity imposed by RA analogue / identity of NSCs: dSMADi+SAG; for identity imposed by RA analogue / identity of NSCs / identity of cells after inhibiting CYP26 activity: 9 DDC"}, "CYP26": {"system": "CYP26", "conditions": "cited from earlier work"}, "β-catenin": {"system": "β-catenin", "test": "β-CATENIN nuclear levels in cultures at 2 DDC", "assay_type": "cell-based, human", "conditions": "dSMADi+SAG", "excerpt": "FIG. 2: Specification of NSC with ventral midbrain identity using RA and SHH signaling. (a) Schematic of hPSCs differentiation with timeline of treatment with RA and activator of SHH signaling (SAG) (top). Immunocytochemistry for indicated markers at 9 DDC in cultures differentiated in dSMADi+SAG-condition and pulsed with RA for 1-, 2- or 4-days (bottom). (b) Relative gene expression (FPKM) of indicated genes in 9 DDC cultures differentiated in dSMADi+SAG-conditions and treated with RA for the indicated time. (c) Heatmap and hierarchical clustering of differentially expressed genes of 9 DDC cultures differentiated in dSMADi+SAG-condition and treated with RA for the indicated time. (d) Schematic of gene expression profiles defining distinct ventral progenitors in the diencephalon (Di), midbrain (MB) and hindbrain (HB) positions. (e) Expression of genes associated with the indicated regional progenitors at 14 DDC in cultures differentiated in dSMADi+SAG+RA^2D condition. (f) Immunocytochemistry for β-CATENIN (left) and boxplots of β-CATENIN nuclear levels (right) in cultures at 2 DDC differentiated in dSMADi+SAG-condition (control) and treated with RA or CHIR99021. Boxplot, whiskers define 5th and 95th percentile. Asterisks, Student t test; **p<0.01, ***p<0.001. (g) Immunocytochemistry for the indicated markers in cultures at 14 DDC differentiated in dSMADi+SAG+RA^2D condition. […]"}, "[1]": {"system": "hPSC-derived vMB progenitors", "test": "Neurogenesis and mDA neuron yield in differentiating hPSC cultures (HuCD, TuJ1, TH, GABA immunocytochemistry, electrophysiology)", "assay_type": "cell-based, human", "conditions": "with SAG", "excerpt": "A unique feature of mDA neurons is that they originate from initially non-neuronal floor plate (FP) cells at the ventral midline of the MB, and progenitors must acquire neuronal potential prior to differentiation into neurons^30,44. Few markers distinguish between these states, but downregulation of SHH and upregulation pro-neural bHLH proteins over time correlate with this transition^44. […] In RA^2D+SAG cultures at 21 DDC, ˜30% of DAPI^+ cells accounted for HuCD^+ neurons (FIG. 4d) and many of these had initiated expression of TH (FIG. 4c). When we instead used CHIR99021+SAG to specify LMX1A^+/NKX2.1^− vMB progenitors (FIG. 3b), cells initiated neurogenesis at around 17 DDC (FIG. 4c, d) which is consistent with previous studies^9,13. At 21 DDC, HuCD^+ neurons constituted ˜10% of total cells and few neurons expressed TH (FIG. 4c, d).\nTH^+ neurons acquired a progressively more advanced neuronal morphology with a progressive outgrowth of TH^+ axonal processes in RA^2D+SAG cultures between 30-45 DDC (FIG. 4e, g, h; FIG. 8f (Supplementary FIG. 2f)). TH^+ neurons expressed mDA neuron markers LMX1A, LMX1B, FOXA2, NURR1, and OTX2 at 30-35 DDC (FIG. 4e). […] TH^+ neurons also expressed the mature neuronal marker SYNAPTOPHYSIN and the monoaminergic marker VMAT2 (FIG. 40. A subset of cells expressed GIRK2 or CALBINDIN indicating the presence of both A9- and A10-like subtypes of mDA neurons^45 (FIG. 4f). At 35 DDC, ˜80% of neurons expressed TH^+ which corresponded to ˜65% of total DAPI^+ cells (FIG. 4i, j). ˜10% of neurons expressed GABA (FIG. 4i, j), and some of these co-expressed TH (FIG. 10c (Supplementary FIG. 4c)). Only rare neurons expressing 5-HT or the MN marker PERIPHERIN were detected (FIG. 4i, j). High performance liquid chromatography (HPLC) analyses at 42 DDC established that neurons produced and released dopamine (FIG. 4k, I) but not serotonin (5-HT) or noradrenaline (NA) (FIG. 4k). […] Very few cells expressed Ki67 or phospho-histone H3 at 35-40 DDC indicating low mitotic activity after long-term culturing of cells (FIG. 4i). Functional maturation of mDA neurons in vitro can be monitored by determining the time when hPSC-derived mDA neurons acquire spontaneous action potentials, evoked action potentials and voltage-dependent Na^+ and K^+ currents, and these traits were previously reported to be attained after ˜60 days of culture of FACS-enriched mDA neurons (25+36 days: before/after sorting) using current state-of-the-art protocols^7. […] Neurons showing both spontaneous (FIG. 4m) and evoked action potentials (FIG. 4n) could be recorded at 40 DDC.\n80-90% confluent PSCs cultures were rinsed twice with PBS, treated with EDTA (0.5 mM in PBS) for 5-7 min, and resuspended into single cell suspension in PBS. Cells were spin down at 400 g and resuspended in N2B27 medium (DMEM/F12: Neurobasal (1:1), 0.5×N2 and 0.5×B27 (plus vitamin A) supplements, 1×nonessential amino acids, 1% GlutaMAX, 55 μM β-mercaptoethanol-all from Thermo Fisher Scientific) containing 5 μM SB431542 (Miltenyi Biotech) and 2.5 μM DMH1 (Santa Cruz Biotech) (dual SMAD inhibition), and 10 μM ROCK inhibitor (for the first 48 hours after seeding). Cells were seeded on VTN (2 μg/cm^2) and Fibronectin (FN) (2 μg/cm^2) (Sigma) coated surface at a density of 60,000-80,000 cells/cm^2 for RA- and RA-analogues based experiments, and 20,000 cells/cm^2 for CHIR99021 experiments. SAG1.3 (Santa Cruz Biotechnology), CHIR99021 (Miltenyi Biotech), all-trans RA, 9-cis RA, 13-cis RA, Tazarotenic acid, R115866 (all Sigma), EC23 (Amsbio) were used at concentrations and time points described in the result section. For mDA neuron differentiation (see schematic drawing FIG. 4) neural progenitors were mechanically dissociated at 9 DDC with Stem Cell Passaging Tool (Thermo Fisher Scientific) and seeded at 1:3 ratio in N2B27 medium containing 10 μM ROCK inhibitor (for first 48 hours after dissociation) on VTN and FN coated surfaces. […]"}, "[2]": {"system": "hPSC-derived ventral midbrain dopaminergic progenitors", "test": "Specification of caudal midbrain identity (EN1 immunocytochemistry)", "assay_type": "cell-based, human", "conditions": "RA^2D+SAG plus 5 μM CHIR99021 between 4-9DDC", "method": "(a) (a) Immunocytochemical analysis of ventral MB progenitor identities at 14 DDC. […] Nuclei of cells visualized with DAPI staining. (b) Immunocytochemistry of dopaminergic neuron marker TH and caudal midbrain marker EN1 expression in 40 DDC cultures differentiated in indicated conditions.\nCells were fixed for 12 min at room temperature (RT) in 4% paraformaldehyde in PBS, rinsed 3 times in PBST (PBS with 0.1% Triton-X100), and blocked for 1 hour at RT with blocking solution (3% FCS/0.1% Triton-X100 in PBS). Cells were then incubated with primary antibodies overnight at 4° C., followed by incubation with fluorophore-conjugated secondary antibodies for 1 hour at RT. Both primary and fluorophore-conjugated secondary antibodies were diluted in blocking solution. Primary antibodies used are listed in Supplementary Table 1. Appropriate Alexa (488, 555, 647)-conjugated secondary antibodies (Molecular Probes) were used.\nMechanisms underlying specification of midbrain dopamine neuron subtypes remains poorly resolved, but is likely to involve sub-patterning of ventral midbrain dopaminergic progenitors along the mediolateral and rostro-caudal axes of the midbrain (Brignani, S, and Pasterkamp, R. J., Front. Neuroanat. 11, 1-18 (2017)). WNT1 signaling emanating from the isthmic organizer at the midbrain-hindbrain boundary establish polarity of midbrain progenitors along the rostro-caudal axis by inducing a caudal^HIGH-to-rostral^LOW expression gradient of the homeodomain proteins EN1 and EN2 (Wurst, W. and Bally-Cuif, L. Nat. Rev. Neuroscience 2, 99-108 (2001))."}},
  "note": "“Also recorded” adds a separate entry of the source.",
  "data": [
    {"smiles": "CC1=C(/C=C/C(C)=C\\C=C\\C(C)=C\\C(=O)O)C(C)(C)CCC1", "note": "[9-cis RA, 9-cis-Retinoic acid]", "values": [
      {"measurement": "identity imposed by RA analogue with inhibition of CYP26 activity", "setting": "hPSC-derived NSCs", "value": "shift into a PHOX2B^+ HB identity"},
      {"measurement": "identity imposed by RA analogue", "setting": "hPSC-derived NSCs", "value": "LMX1A^+/NKX2.1^− vMB identity; also recorded: LMX1A+/NKX2.1− vMB identity"},
      {"measurement": "susceptibility to CYP26-mediated oxidation", "setting": "CYP26", "value": "substrates for CYP26-mediated oxidation"}
    ]},
    {"smiles": "CC1=C(/C=C/C(C)=C/C=C/C(C)=C\\C(=O)O)C(C)(C)CCC1", "note": "[13-cis RA, 13-cis-Retinoic acid]", "values": [
      {"measurement": "identity imposed by RA analogue with inhibition of CYP26 activity", "setting": "hPSC-derived NSCs", "value": "shift into a PHOX2B^+ HB identity"},
      {"measurement": "identity imposed by RA analogue", "setting": "hPSC-derived NSCs", "value": "LMX1A^+/NKX2.1^− vMB identity; also recorded: LMX1A+/NKX2.1− vMB identity"},
      {"measurement": "susceptibility to CYP26-mediated oxidation", "setting": "CYP26", "value": "substrates for CYP26-mediated oxidation"}
    ]},
    {"smiles": "Cc1c[nH]c(-c2cnc(NCCNc3ccc(C#N)cn3)nc2-c2ccc(Cl)cc2Cl)n1", "note": "[CHIR99021]", "values": [
      {"measurement": "β-catenin in nuclei", "setting": "β-catenin", "value": "translocation of β-catenin into nuclei"},
      {"measurement": "identity of NSCs", "setting": "hPSC-derived NSCs; 1 μM", "value": "LMX1A^+/NKX2.1^− identity"},
      {"measurement": "identity of NSCs", "setting": "hPSC-derived NSCs; 0.8 and 0.6 μM", "value": "diencephalic LMX1A^+/NKX2.1^+ character"},
      {"measurement": "identity of NSCs", "setting": "hPSC-derived NSCs; 1.2 and 1.4 μM", "value": "NKX2.2^+/LMX1A^− presumptive HB identity"},
      {"measurement": "HuCD+ neurons as share of total DAPI+ cells", "setting": "[1]; 21 DDC", "value": "~10", "unit": "%"},
      {"measurement": "time of initiation of neurogenesis (first neurons)", "setting": "[1]", "value": "around 17 DDC"},
      {"measurement": "identity of ventral midbrain progenitors (EN1)", "setting": "[2]; 14DDC", "value": "a majority of LMX1A^+/OTX2^+ cells also expressed EN1"},
      {"measurement": "EN1 expression in TH+ dopamine neurons", "setting": "[2]; 40DDC", "value": "a large fraction of TH^+ dopamine neurons expressed EN1"}
    ]},
    {"smiles": "CC1(C)CCC(C)(C)c2cc(C#Cc3ccc(C(=O)O)cc3)ccc21", "note": "[EC23]", "values": [
      {"measurement": "identity imposed by EC23", "setting": "hPSC-derived NSCs; 200 nM EC23, EC23^1D+SAG or EC23^2D+SAG, with or without inhibition of CYP26", "value": "PHOX2B^+ HB-identity; also recorded: hindbrain identity"},
      {"measurement": "EC23 concentration imposing a vMB-identity", "setting": "hPSC-derived NSCs; FIG. 9c titration", "value": 10, "unit": "nM"},
      {"measurement": "duration of EC23 treatment required to induce LMX1A+/NKX2.1− vMB cells", "setting": "hPSC-derived NSCs; reduced EC23 concentration", "value": 24, "unit": "h"},
      {"measurement": "reduction in concentration required for EC23 to induce LMX1A+/NKX2.1− vMB cells", "setting": "hPSC-derived NSCs; titration, relative to 200 nM, treatment for 24 hours", "value": 20, "unit": "fold"}
    ]},
    {"smiles": "CCC(CC)C(c1ccc(Nc2nc3ccccc3s2)cc1)n1cncn1", "note": "(stereo not shown) [R115866]", "values": [
      {"measurement": "identity of cells after inhibiting CYP26 activity", "setting": "hPSC-derived NSCs; 100 nM R115866, RA+SAG cultures", "value": "mix of LMX1A^+/NKX2.1^− vMB cells and PHOX2B^+ HB cells"},
      {"measurement": "identity of cells after inhibiting CYP26 activity", "setting": "hPSC-derived NSCs; 500 nM R115866 between 0-3 DDC, RA^1D+SAG or RA^2D+SAG cultures", "value": "PHOX2B^+ HB-identity"},
      {"measurement": "identity of cells after inhibiting CYP26 activity", "setting": "hPSC-derived NSCs; R115866 and SAG only (no RA)", "value": "did not suppress NKX2.1^+ FB-fate"}
    ]},
    {"smiles": "CNC1CCC(N(Cc2cccc(-c3ccncc3)c2)C(=O)c2sc3ccccc3c2Cl)CC1", "note": "(stereo not shown) [SAG]", "values": [
      {"measurement": "SAG concentration for effective induction of vMB NSC identity", "setting": "hPSC-derived NSCs; dSMADi, SAG from day 0, 9 DDC", "value": 50, "unit": "nM"}
    ]},
    {"smiles": "CC1(C)CCSc2ccc(C#Cc3ccc(C(=O)O)cn3)cc21", "note": "[tazarotenic acid]", "values": [
      {"measurement": "identity imposed by RA analogue with inhibition of CYP26 activity", "setting": "hPSC-derived NSCs", "value": "shift into a PHOX2B^+ HB identity"},
      {"measurement": "identity imposed by RA analogue", "setting": "hPSC-derived NSCs", "value": "LMX1A^+/NKX2.1^− vMB identity; also recorded: LMX1A+/NKX2.1− vMB identity"},
      {"measurement": "susceptibility to CYP26-mediated oxidation", "setting": "CYP26", "value": "substrates for CYP26-mediated oxidation"}
    ]}
  ]
}
